Experimental data taken from patent US20220281846A1, “COMPOUNDS AND COMPOSITIONS FOR THE TREATMENT OF RESPIRATORY DISEASES” (THE UNIVERSITY OF MELBOURNE, priority 2018, published 2022).
Where “and” joins values, the source holds several entries; their conditions need not be identical. Identical values can stand only once. Like-named read-outs stand apart in the source and are kept apart here.

How the values were obtained:
[1] = target: T1, human recombinant Casein kinase 18 (CK1δ) (Homo sapiens, UniProt P48730); assay: Kinase inhibition assay (HotSpot, Reaction Biology Corp), CK1δ; format: biochemical; details: 10 μM ATP, 10-dose IC50 mode; read-out: Compound IC50 (M) CK1δ
T1 construct: purchased Reaction Biology Corp

[2] = test system: interleukin-1α (IL1α)-mediated cytokine production by the lung adenocarcinoma cell line A549; assay: Cellular assay (A549) against IL1α-mediated cytokine production; format: cell-based, human; details: serum starved A549 cells, compound 30 min prior to IL-1α (1 ng/ml) for 24 h, ELISA
Experimental: Cellular Assay (A549 Human Lung Adenocarcinoma Cells) Assessing Effect of ZH3-138, ZH3-126 and PF670462 Against IL1α-Mediated Cytokine Production
The anti-inflammatory potential of selected compounds was examined by establishing the effects on interleukin-1α (IL1α)-mediated cytokine production by the lung adenocarcinoma cell line A549. Serum starved A549 cells were treated with various concentrations of the relevant CK1δ inhibitor (PF670462, ZH3-126 and ZH3-138) 30 min prior to IL-1α (1 ng/ml) for 24 h. Supernatant was collected and concentration of IL-6, IL-8 and GM-CSF was detected by ELISA. Data are presented as mean±SEM across three replicates in FIG. 7 (A: IL-6; B: IL-8 and C: GM-CSF).

[3] = Mouse pharmacokinetics, IV and oral administration; format: in vivo; details: male C57BL/6 mice; for concentration at 0.017 h / concentration at 0.033 h / concentration at 0.083 h / concentration at 0.25 h / concentration at 0.5 h / concentration at 1 h / concentration at 2 h / concentration at 4 h / concentration at 7.5 h / concentration at 24 h: male, C57BL/6, mouse
Experimental: PF670462 (2HCl.0.4 mol. eq. isopropanol) and ZH3-138 (unionised) were administered to male C57BL/6 mice by IV (3 mg/kg) or orally (10 mg/kg). IV administration was achieved by bolus injection into the tail vein of mice using 1 mL syringe with 25G×1″ needle at a volume of 3 mL/kg. Oral administration was achieved by gavage needle at a volume of 3 mL/kg.
Intravenous (IV) and oral formulations were prepared using the same method. On the day of dosing, each of the solid compound was dissolved in DMSO to which an aqueous solution containing 10% Captisol was added. Hydrochloric acid (1 M) was used to modify pH for the formulation of ZH3-138 with the purpose of solubilising the compound (see Section B for the final pH of each formulation). The formulations of each compound were thoroughly vortexed, producing colourless solutions for all three compounds.
The systemic exposure of PF670462 and ZH3-138 was studied in non-fasted male C57BL/6 mice weighing 19.8-26.8 g. Mice had access to food and water ad libitum throughout the pre- and post-dose sampling period.
Compounds were dosed to mice by bolus injection into the lateral tail vein (3 mL/kg) for IV administration and by gavage (3 mL/kg) for oral administration. Following IV and oral administration, blood samples were collected up to 24 h (n=3 mice per time point) with a maximum of three samples from each mouse. Samples were collected via submandibular bleed (approximately 120 μL; conscious sampling). No urine samples were collected as mice were housed in bedded cages.
Blood was collected into polypropylene Eppendorf tubes containing heparin as anticoagulant and stabilisation cocktail (containing Complete® (a protease inhibitor cocktail) and potassium fluoride) to minimise the potential for ex vivo compound degradation in blood/plasma samples.
Once collected, blood samples were centrifuged immediately, supernatant plasma was removed, and stored at −80° C. until analysis by LC-MS.
Plasma samples were quantified against calibration standards prepared by spiking blank mouse plasma (50 μL) with solution standards (10 μL) obtained by diluting a stock solution of test compound (1 mg/mL in DMSO) with 50% acetonitrile in water. Diazepam (10 μL of 5 μg/mL in 50% acetonitrile/water) was added to all plasma calibration standards and samples as an internal standard (IS). The extraction of the test compound and IS from plasma was conducted using protein precipitation with acetonitrile. Protein precipitation was carried out by the addition of acetonitrile followed by vortexing and centrifugation (10,000 rpm) for 3 minutes to obtain supernatant for analysis using the LC-MS conditions described in Table 7.

T1 sequence (P48730 whole entry): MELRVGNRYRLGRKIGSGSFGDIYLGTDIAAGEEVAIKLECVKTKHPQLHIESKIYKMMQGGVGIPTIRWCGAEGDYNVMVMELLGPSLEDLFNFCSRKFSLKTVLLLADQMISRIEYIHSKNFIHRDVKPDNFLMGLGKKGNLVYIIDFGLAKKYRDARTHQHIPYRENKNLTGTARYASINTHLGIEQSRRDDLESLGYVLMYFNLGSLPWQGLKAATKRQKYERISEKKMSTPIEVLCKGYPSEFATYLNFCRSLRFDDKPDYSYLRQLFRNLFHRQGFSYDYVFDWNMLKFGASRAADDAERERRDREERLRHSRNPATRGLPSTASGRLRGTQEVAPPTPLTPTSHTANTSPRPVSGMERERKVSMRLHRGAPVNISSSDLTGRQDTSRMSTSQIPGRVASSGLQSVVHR

SMILES: Nc1nccc(-c2c(-c3ccc(F)cc3)ncn2C2CCC(F)(F)CC2)n1 [ZH3-138, 4-(1-(4,4-Difluorocyclohexyl)-4-(4-fluorophenyl)-1H-imidazol-5-yl)pyrimidin-2-amine]
- IC50 [1]: 9.32e-09 M
- supernatant concentrations of inflammatory biomarkers (IL-6, IL-8, GM-CSF) [2]: ability to reduce supernatant concentrations of other inflammatory biomarkers
- apparent blood clearance [3]: low
- apparent blood volume of distribution [3]: moderate
- time post-dose for which plasma concentration was measurable (above LLQ) ([3]; 24 h sampling period): ≥ 24 h
- Plasma Concentration, Individual ([3]; IV 2.69 mg/kg, 0.017 h, 2.69 mg/kg): 11.4 µM and 9.81 µM
- Plasma Concentration, Individual ([3]; IV 2.69 mg/kg, 0.033 h, 2.69 mg/kg): 6.30 µM and 9.37 µM
- Plasma Concentration, Individual ([3]; IV 2.69 mg/kg, 0.083 h (actual sampling time was 0.10 h), 2.69 mg/kg): 5.94 µM and 5.95 µM
- Plasma Concentration, Individual ([3]; IV 2.69 mg/kg, 0.25 h, 2.69 mg/kg): 4.68 µM and 4.21 µM
- Plasma Concentration, Individual ([3]; IV 2.69 mg/kg, 0.5 h, 2.69 mg/kg): 4.12 µM and 4.28 µM
- Plasma Concentration, Individual ([3]; IV 2.69 mg/kg, 1.0 h, 2.69 mg/kg): 2.73 µM and 3.70 µM
- Plasma Concentration, Individual ([3]; IV 2.69 mg/kg, 2.0 h, 2.69 mg/kg): 5.24 µM and 4.00 µM
- Plasma Concentration, Individual ([3]; IV 2.69 mg/kg, 4.0 h, 2.69 mg/kg): 3.53 µM and 3.63 µM
- Plasma Concentration, Individual ([3]; IV 2.69 mg/kg, 7.5 h, 2.69 mg/kg): 1.77 µM and 1.54 µM
- Plasma Concentration, Individual ([3]; IV 2.69 mg/kg, 24 h, 2.69 mg/kg): 0.0287 µM and 0.0211 µM
- Plasma Concentration, Individual ([3]; oral 8.96 mg/kg, 0.25 h, 8.96 mg/kg): 14.7 µM and 8.96 µM
- Plasma Concentration, Individual ([3]; oral 8.96 mg/kg, 0.50 h, 8.96 mg/kg): 11.3 µM and 22.5 µM
- Plasma Concentration, Individual ([3]; oral 8.96 mg/kg, 1.0 h, 8.96 mg/kg): 16.2 µM and 14.4 µM
- Plasma Concentration, Individual ([3]; oral 8.96 mg/kg, 2.0 h, 8.96 mg/kg): 17.4 µM and 17.7 µM
- Plasma Concentration, Individual ([3]; oral 8.96 mg/kg, 4.0 h, 8.96 mg/kg): 10.2 µM and 15.1 µM
- Plasma Concentration, Individual ([3]; oral 8.96 mg/kg, 7.5 h, 8.96 mg/kg): 5.97 µM and 8.71 µM
- Plasma Concentration, Individual ([3]; oral 8.96 mg/kg, 24 h, 8.96 mg/kg): 0.0400 µM and 0.0758 µM
- time of apparent secondary peak in concentration-time profile ([3]; post-dose): 2 h
- concentration at 0.017 h ([3]; plasma, iv, 2.69 mg/kg, IV 2.69 mg/kg, 0.017 h, read-out: Plasma Concentration, Individual): 11.1 µM
- concentration at 0.017 h ([3]; plasma, iv, 2.69 mg/kg, IV 2.69 mg/kg, 0.017 h, read-out: Plasma Concentration, Mean): 10.8 µM
- concentration at 0.033 h ([3]; plasma, iv, 2.69 mg/kg, IV 2.69 mg/kg, 0.033 h, read-out: Plasma Concentration, Individual): 7.86 µM
- concentration at 0.033 h ([3]; plasma, iv, 2.69 mg/kg, IV 2.69 mg/kg, 0.033 h, read-out: Plasma Concentration, Mean): 7.84 µM
- concentration at 0.083 h ([3]; plasma, iv, 2.69 mg/kg, IV 2.69 mg/kg, 0.083 h (actual sampling time was 0.10 h), read-out: Plasma Concentration, Individual): 5.29 µM
- concentration at 0.083 h ([3]; plasma, iv, 2.69 mg/kg, IV 2.69 mg/kg, 0.083 h (actual sampling time was 0.10 h), read-out: Plasma Concentration, Mean): 5.73 µM
- concentration at 0.25 h ([3]; plasma, iv, 2.69 mg/kg, IV 2.69 mg/kg, 0.25 h, read-out: Plasma Concentration, Individual): 5.04 µM
- concentration at 0.25 h ([3]; plasma, iv, 2.69 mg/kg, IV 2.69 mg/kg, 0.25 h, read-out: Plasma Concentration, Mean): 4.65 µM
- concentration at 0.5 h ([3]; plasma, iv, 2.69 mg/kg, IV 2.69 mg/kg, 0.5 h, read-out: Plasma Concentration, Individual): 4.01 µM
- concentration at 0.5 h ([3]; plasma, iv, 2.69 mg/kg, IV 2.69 mg/kg, 0.5 h, read-out: Plasma Concentration, Mean): 4.14 µM
- concentration at 1 h ([3]; plasma, iv, 2.69 mg/kg, IV 2.69 mg/kg, 1.0 h, read-out: Plasma Concentration, Individual): 2.93 µM
- concentration at 1 h ([3]; plasma, iv, 2.69 mg/kg, IV 2.69 mg/kg, 1.0 h, read-out: Plasma Concentration, Mean): 3.12 µM
- concentration at 2 h ([3]; plasma, iv, 2.69 mg/kg, IV 2.69 mg/kg, 2.0 h, read-out: Plasma Concentration, Individual): 4.42 µM
- concentration at 2 h ([3]; plasma, iv, 2.69 mg/kg, IV 2.69 mg/kg, 2.0 h, read-out: Plasma Concentration, Mean): 4.55 µM
- concentration at 4 h ([3]; plasma, iv, 2.69 mg/kg, IV 2.69 mg/kg, 4.0 h, read-out: Plasma Concentration, Individual): 3.74 µM
- concentration at 4 h ([3]; plasma, iv, 2.69 mg/kg, IV 2.69 mg/kg, 4.0 h, read-out: Plasma Concentration, Mean): 3.63 µM
- concentration at 7.5 h ([3]; plasma, iv, 2.69 mg/kg, IV 2.69 mg/kg, 7.5 h, read-out: Plasma Concentration, Individual): 1.84 µM
- concentration at 7.5 h ([3]; plasma, iv, 2.69 mg/kg, IV 2.69 mg/kg, 7.5 h, read-out: Plasma Concentration, Mean): 1.72 µM
- concentration at 24 h ([3]; plasma, iv, 2.69 mg/kg, IV 2.69 mg/kg, 24 h, read-out: Plasma Concentration, Individual): 0.0237 µM
- concentration at 24 h ([3]; plasma, iv, 2.69 mg/kg, IV 2.69 mg/kg, 24 h, read-out: Plasma Concentration, Mean): 0.0245 µM
- concentration at 0.25 h ([3]; plasma, po, 8.96 mg/kg, oral 8.96 mg/kg, 0.25 h, read-out: Plasma Concentration, Individual): 12.1 µM
- concentration at 0.25 h ([3]; plasma, po, 8.96 mg/kg, oral 8.96 mg/kg, 0.25 h, read-out: Plasma Concentration, Mean): 11.9 µM
- concentration at 0.5 h ([3]; plasma, po, 8.96 mg/kg, oral 8.96 mg/kg, 0.50 h, read-out: Plasma Concentration, Individual): 13.7 µM
- concentration at 0.5 h ([3]; plasma, po, 8.96 mg/kg, oral 8.96 mg/kg, 0.50 h, read-out: Plasma Concentration, Mean): 15.8 µM
- concentration at 1 h ([3]; plasma, po, 8.96 mg/kg, oral 8.96 mg/kg, 1.0 h, read-out: Plasma Concentration, Individual): 13.9 µM
- concentration at 1 h ([3]; plasma, po, 8.96 mg/kg, oral 8.96 mg/kg, 1.0 h, read-out: Plasma Concentration, Mean): 14.8 µM
- concentration at 2 h ([3]; plasma, po, 8.96 mg/kg, oral 8.96 mg/kg, 2.0 h, read-out: Plasma Concentration, Individual): 13.8 µM
- concentration at 2 h ([3]; plasma, po, 8.96 mg/kg, oral 8.96 mg/kg, 2.0 h, read-out: Plasma Concentration, Mean): 16.3 µM
- concentration at 4 h ([3]; plasma, po, 8.96 mg/kg, oral 8.96 mg/kg, 4.0 h, read-out: Plasma Concentration, Individual): 11 µM
- concentration at 4 h ([3]; plasma, po, 8.96 mg/kg, oral 8.96 mg/kg, 4.0 h, read-out: Plasma Concentration, Mean): 12.1 µM
- concentration at 7.5 h ([3]; plasma, po, 8.96 mg/kg, oral 8.96 mg/kg, 7.5 h, read-out: Plasma Concentration, Individual): 6.59 µM
- concentration at 7.5 h ([3]; plasma, po, 8.96 mg/kg, oral 8.96 mg/kg, 7.5 h, read-out: Plasma Concentration, Mean): 7.09 µM
- concentration at 24 h ([3]; plasma, po, 8.96 mg/kg, oral 8.96 mg/kg, 24 h, read-out: Plasma Concentration, Individual): 0.0513 µM
- concentration at 24 h ([3]; plasma, po, 8.96 mg/kg, oral 8.96 mg/kg, 24 h, read-out: Plasma Concentration, Mean): 0.0557 µM
- half-life ([3]; mouse, plasma, read-out: apparent half-life (converted)): ~3 h
